In brackets after ≈: the same amount, converted by molar mass. Activity calls are given as the source filed them. The rule behind the calls is not given here.

One assay has as its system Escherichia coli. In words: Antibacterial activity against Escherichia coli CECT 99. The class given is functional, organism-based.
For another assay, the system named is Bacillus subtilis. In words: Antibacterial activity against Bacillus subtilis CECT 39 by rotary shaker method. The class given is functional.
The subject of a further assay is Candida albicans. Put plainly: Antifungal activity against Candida albicans UBC1. The class given is functional, organism-based.
The subject of a further assay is Salmonella. In words: Antibacterial activity against Salmonella sp. CECT 456. It counts as functional, organism-based.
The subject of the next assay is Staphylococcus aureus. In words: Antibacterial activity against Staphylococcus aureus ATCC 6538 by rotary shaker method. It counts as functional.
The next assay has as its system Pseudomonas aeruginosa. In words: Antibacterial activity against Pseudomonas aeruginosa AK 958. The class given is functional, organism-based.

Regarding `CCCCCCC/C=C\[C@H](O)C#CC#C/C=C\CO`, the result in the assay with Escherichia coli, in the assay with Candida albicans, with Salmonella and in the assay on Pseudomonas aeruginosa was inactive. The minimum inhibitory concentration (MIC) in the assay with Bacillus subtilis came to 10.5 µg/mL (≈ 40.3 µM); with Staphylococcus aureus it was 10 µg/mL (≈ 38.4 µM).

A word on the MIC: it is the least concentration at which growth counts as inhibited.

(Values after ChEMBL document CHEMBL1148051, “Antibiotic activity and absolute configuation of 8S-heptadeca-2(Z),9(Z)-diene-4,6-diyne-1,8-diol from Bupleurum salicifolium” (1994).)
